From ChEMBL document CHEMBL1145940, “Computer modeling of selective regions in the active site of nitric oxide synthases: implication for the design of isoform-selective inhibitors” (J Med Chem, 2003)
Peptide text beside a SMILES is read from it.

Key:
[1] = Inhibitory activity against neuronal nitric oxide synthase
[2] = Inhibitory activity against endothelial nitric oxide synthase (eNOS)
[3] = Inhibitory activity against Inducible nitric oxide synthase
[4] = Selectivity for neuronal over endothelial nitric oxide synthase

Compound | Ki [1] | Ki [2] | Ki [3] | Selectivity [4]
NCc1cccc(NC[C@@H](N)CCC/N=C(\N)N[N+](=O)[O-])c1 | 0.21 µM | 194 µM | 80 µM | –
NCCCC[C@@H](N)C(=O)N[C@H](CCC/N=C(/N)N[N+](=O)[O-])C(N)=O (HELM PEPTIDE1{[dK].[N=C(NCCC[C@@H](N[*:1])C(=O)[*:2])N[N+](=O)[O-]].[am]}$$$$V2.0) | 0.89 µM | 30 µM | 910 µM | –
N/C(=N\CCC[C@H](N)CNCc1cccnc1)N[N+](=O)[O-] | 0.76 µM | 193 µM | 395 µM | 254
NC(=O)[C@@H](CCC/N=C(/N)N[N+](=O)[O-])NC(=O)[C@H](N)Cc1ccccc1 | 17 µM | 90 µM | – | 5.3
NCc1ccccc1NC[C@@H](N)CCC/N=C(\N)N[N+](=O)[O-] | 5.55 µM | 39.8 µM | 29.3 µM | 7.17
[H]/N=C(/NCCC[C@H](N)C(=O)N[C@H]1CNC(C(N)=O)C1)N[N+](=O)[O-] (stereo partly drawn) | 0.074 µM | – | 29.5 µM | –
N/C(=N\CCC[C@@H](NC(=O)[C@H](N)Cc1ccccc1)C(=O)O)N[N+](=O)[O-] (HELM PEPTIDE1{[dF].[N=C(NCCC[C@@H](N[*:1])C(=O)O)N[N+](=O)[O-]]}$$$$V2.0) | 17 µM | 90 µM | 13600 µM | 5.3
NC(=O)[C@H](N)NC(=O)[C@@H](N)CCC/N=C(/N)N[N+](=O)[O-] | 1.1 µM | 261 µM | 61 µM | 237
NCCc1ccc(NC[C@@H](N)CCC/N=C(\N)N[N+](=O)[O-])cc1 | 1.66 µM | – | – | –
Cc1c(C)c2c(c(C)c1O)CC[C@@](C)(C(=O)C1CCC(c3ccc(NC(=N)c4cccs4)cc3)CC1)O2 (stereo partly drawn) | – | 110 µM | > 300 µM | –
CCCCC[C@H]1NC(=N)C[C@H]1C | 3.2 µM | 226 µM | 0.25 µM | –
N/C(=N/CCC[C@H](N)CNc1cccnc1)N[N+](=O)[O-] | 0.55 µM | 523 µM | 141 µM | 951
NCc1ccc(NC[C@@H](N)CCC/N=C(\N)N[N+](=O)[O-])cc1 | 1.37 µM | 409 µM | 335 µM | 299
N=C(NCCC[C@H](N)C(=O)N[C@@H]1CN[C@@H](C(N)=O)C1)N[N+](=O)[O-] | – | 110 µM | 200 µM | –
COC(=O)[C@@H](CCCNC(=N)N[N+](=O)[O-])NC(=O)[C@H](N)Cc1ccccc1 (HELM PEPTIDE1{[dF].[N=C(NCCC[C@@H](N[*:1])C(=O)[*:2])N[N+](=O)[O-]].[CO[*:1]]}$$$$V2.0) | 2 µM | 5 µM | 3600 µM | 2.5
NCNC[C@@H](N)CCC/N=C(/N)N[N+](=O)[O-] | 0.12 µM | 314 µM | 39 µM | 2580
NCCCNC[C@@H](N)CCC/N=C(\N)N[N+](=O)[O-] | – | 411 µM | 123 µM | –
NC[C@H](NC(=O)[C@@H](N)CCC/N=C(\N)N[N+](=O)[O-])C(N)=O (HELM PEPTIDE1{[N=C(NCCC[C@H](N)C(=O)[*:2])N[N+](=O)[O-]].[NC[C@H](N[*:1])C(=O)[*:2]].[am]}$$$$V2.0) | 0.31 µM | 200 µM | 25 µM | –
COC(=O)[C@@H](CCC/N=C(\N)N[N+](=O)[O-])NC(=O)[C@@H](N)Cc1ccccc1 (HELM PEPTIDE1{F.[N=C(NCCC[C@@H](N[*:1])C(=O)[*:2])N[N+](=O)[O-]].[CO[*:1]]}$$$$V2.0) | 90 µM | 150 µM | 7500 µM | 1.7
NCCCC[C@H](N)C(=O)N[C@H](CCC/N=C(\N)N[N+](=O)[O-])C(N)=O (HELM PEPTIDE1{K.[N=C(NCCC[C@@H](N[*:1])C(=O)[*:2])N[N+](=O)[O-]].[am]}$$$$V2.0) | 1.7 µM | 229 µM | 4700 µM | –
